Assay [1] deals with SD rat. The experiment in a line: rat corneal epithelial defect (corneal wound) model. Type of assay: in vivo. As to conditions: for wound area healing rate on Day 2: SD rat corneal epithelial defect, 1% ointment to the eye four times a day, n=5; for healing of the corneal defect wound as compared with the vehicle administration group: n=5, t-test (compound A p<0.05; crisaborole n.s.). The source says:
Using a male rat (SD rat), a corneal wound was induced as follows. On the day before the start of the test, rats were grouped using a stratified random sampling method based on the body weight. Under isoflurane anesthesia, each conventional rat was anesthetized with a Benoxil ophthalmic solution to the surface of the eye, and then a nonwoven fabric (3 mm in diameter) with 1-heptanol immersed was placed on the central portion of the cornea and allowed to stand for 30 seconds. Thereafter, the surface of the eye was washed with physiological saline, and the corneal epithelium was scratched with a cotton swab and thus carefully peeled to prepare a corneal defect. A 0.5% methylene blue solution was instilled into the eye, and the corneal epithelial defect portion was washed with physiological saline and then photographed, and then an ointment preparation (base alone, 1% compound A-containing ointment, or 1% crisaborole-containing ointment) as a test substance was administered to the eye four times a day (around 8:00, 11:00, 14:00, and 17:00) for three days. After the day following the preparation of the defect wound, photographing of the defect portion and administration of the test substance were repeated.

In assay [2] the test system is db/db mice. The experiment in a line: wound model using diabetic (db/db) mouse, circular defect wounds of the back skin. Type of assay: in vivo. Conditions: for healing promoting action as compared with the vehicle administration group (area of defect portions): ointment applied to defect wounds once daily for 10 days, compound A groups 1%, 2%, p<0.01 for compound A, N=6; for course of the area of the defect portions (start of healing): ointment once daily for 10 days, compound A 1%, 2% groups, crisaborole increase on second day in the 2% group, vehicle decreased from the fourth day. How it is done:
The compound A or crisaborole was administered to db/db mice, which are spontaneously diabetic models, for 10 days, and the influence on wound healing was examined by analyzing the wound area.
Before start of the test, the db/db mice were grouped using the HbA1c blood concentration as an index, and shaved from the back to the abdomen. On the test start day, the back skin was punched using a biopsy punch (φ6 mm) under isoflurane anesthesia, and thus two circular defect wounds were prepared. The defect portions were photographed, and then an ointment preparation (vehicle [30% medium chain fatty acid triglyceride-containing white petrolatum], compound A or crisaborole) as a test substance was applied to the defect portions and covered with a dressing (Tegaderm, 3M). After the day following the preparation of the defect wounds, removal of the dressing, photographing of the defect portions (once every two days), administration of the test substance, and covering with a dressing were repeated (once daily for 10 days).

The test system of assay [3] is SD rat. The assay is described as follows: rat oral ulcer model induced by cauterization. Type of assay: in vivo. Conditions: for oral ulcer area on Day 8: 1 mass % ointment 0.05 mL twice a day for 5 days from Day 3, Mean±S.E., n=6, vehicle 20.4±2.3 mm^2; for reduction in the oral ulcer area as compared with the vehicle administration group: 1 mass % ointment twice a day for 5 days, Day 8, n=6, t-test (compound A p<0.05; crisaborole n.s.). An excerpt:
Using a male rat (SD rat), an oral ulcer was initiated by cauterization as follows. That is, conventional rats were anesthetized by isoflurane inhalation anesthesia and then placed on their back, and while the upper jaw and the lower jaw of each rat were opened using a rib retractor to take a view, a monopolar having a tip diameter of […] was applied to the central portion of the left oral mucosa, and the portion was cauterized in a circular shape (diameter: 3 to 4 mm) for about 10 to 20 seconds at a set output of 20 to induce an oral ulcer. After the cauterization, the rat was returned to a breeding cage and naturally awakened.
The day of oral ulcer induction was defined as the start day (Day 0). Two days after the oral ulcer induction (Day 2), the rats were grouped using a stratified random sampling method based on the body weight. From 3 days after the initiation of an oral ulcer by cauterization (Day 3), an ointment preparation containing 1 mass % of a test substance or an ointment base alone was orally administered at a dose of 0.05 mL twice a day (around 8:00 and 16:00) for 5 days. (As the compound A 1%, Moizerto (registered trademark) ointment 1% was used. The crisaborole 1% was prepared using a formula in which Moizerto (registered trademark) ointment 1% as the compound A was replaced by crisaborole.) Specifically, a rat anesthetized by isoflurane inhalation was laid down in a left side position, and the ointment preparation was administered to the left cheek where an ulcer was prepared in a state where the oral cavity was opened using tweezers or a rib retractor.

In assay [4] the test system is scratch model. Conditions: NPL 4; cited from earlier work.
In assay [5] the test system is human keratinocytes. As to conditions: NPL 4; cited from earlier work.
The subject of assay [6] is normal human epidermal keratinocyte (NHEK). The assay is described as follows: scratch assay of epidermic cells with compound solution or conditioned medium from skin fibroblasts. Type of assay: cell-based. Conditions: conditioned medium from normal human dermal fibroblasts cultured 24 hours with compound, 18 hours culture. How it is done: The influence of the compound A on epidermic cells via a skin fibroblast was evaluated. As the epidermic cell and the skin fibroblast used in the evaluation system, a normal human epidermal keratinocyte (NHEK, Kurabo Industries Ltd.) and a normal human dermal fibroblast (NEDF, Kurabo Industries Ltd.) were used. As a reference compound, dexamethasone, which is an anti-inflammatory drug, was used.
Skin fibroblasts (1×10^5 cells/mL) suspended in Dulbecco's Modified Eagle Medium (DMEM) containing 10% (v/v) fetal bovine serum (FBS) were seeded at 1 mL/well in a 12 well plate coated with type I collagen, and cultured for 48 hours. After removal of the culture medium and washing with phosphate buffered saline (PBS), the compound solution was added. As the compound solution, a solution was used that was prepared by mixing dimethyl sulfoxide or a compound (the compound A or dexamethasone) dissolved in dimethyl sulfoxide with a normal human epidermal keratinocyte basal medium (HuMedia-KB2, Kurabo Industries Ltd.) (the final concentration of dimethyl sulfoxide was 0.1% [v/v]). After completion of the culture for 24 hours, the conditioned medium was collected.
Epidermic cells (6×10^5 cells/mL) suspended in HuMedia-KB2 were seeded at 100 μL/well in ImageLock 96-well Plate (Sartorius AG) coated with type I collagen, and cultured for 4 hours. […]

The subject of assay [7] is normal human corneal epithelial cell (HCEC-2). The experiment in a line: scratch assay of corneal epithelial cells with compound solution or conditioned medium from keratocytes. Conditions: HCEC-2 scratch wound, conditioned medium from normal human keratocytes cultured 24 hours with compound, 20 hours culture. Type of assay: cell-based. How it is done: The influence of the compound A on corneal epithelial cells via a keratocyte was evaluated. As the corneal epithelial cell and the keratocyte used in the evaluation system, a normal human corneal epithelial cell (HCEC-2, Kurabo Industries Ltd.) and a normal human keratocyte (EK, Cosmo Bio Co., Ltd.) were used.
Keratocytes (2×10^5 cells/mL) suspended in a fibroblast culture medium (Fibroblast Medium, Cosmo Bio Co., Ltd.) were seeded at 1 mL/well in a 12 well plate coated with poly-L-lysine, and cultured overnight. After removal of the culture medium and washing with normal human corneal epithelial cell basal medium (OcuLife BM, Kurabo Industries Ltd.), the compound solution was added. As the compound solution, a solution was used that was prepared by mixing dimethyl sulfoxide or the compound A dissolved in dimethyl sulfoxide with OcuLife BM (the final concentration of dimethyl sulfoxide was 0.1% [v/v]). After completion of the culture for 24 hours, the conditioned medium was collected.
Corneal epithelial cells (6×10^5 cells/mL) suspended in OcuLife BM were seeded at 100 μL/well in ImageLock 96-well Plate (Sartorius AG) coated with type I collagen, and cultured for 4 hours. Each well was scratched using a Wound Maker (trademark) tool (Sartorius AG) to prepare an initial scratch wound area in which no cells were present. […]

The mark [8] stands for this setting: SD rat, 1% ointment four times a day.

The values that follow come from patent US20260272888A1, “WOUND TREATMENT COMPOSITION” (OTSUKA PHARMACEUTICAL CO., LTD., priority 2022, published 2026).

Each structure is given as a SMILES string.

In the case of `N#Cc1ccc(Oc2ccc3c(c2)COB3O)cc1` [crisaborole, reference compound], the “wound area healing rate on Day 2” value in assay [1] is reported as 81.6%. The “healing of the corneal defect wound as compared with the vehicle administration group” value in assay [1] (setting [8]) is “healing was not completed”. For the same compound, in assay [2], the “healing promoting action as compared with the vehicle administration group (area of defect portions)” value is given as “a significant healing promoting action was not observed”; the “course of the area of the defect portions (start of healing)” value was “increased on the second day (in the 2% group) and then gradually decreased from the fourth day”. In addition, in assay [3], the “oral ulcer area on Day 8” value turned out to be 18.3±2.7 mm^2 and the “reduction in the oral ulcer area as compared with the vehicle administration group” value was “significant reduction in the oral ulcer area was not observed”.
Turning to `CS(=O)(=O)Nc1ccc(C(=O)O[C@@H](Cc2c(Cl)c[n+]([O-])cc2Cl)c2ccc(OC(F)F)c(OCC3CC3)c2)cc1OCC1CC1` [CHF6001], the “re-epithelialization in a scratch model after treatment” value in assay [4] is recorded as “re-epithelialization is decreased”. Also, in assay [5], the “growth of human keratinocytes” value is reported as “suppresses growth of human keratinocytes”.
On to `CCOc1ccccc1C(=O)NCc1coc(-c2ccc(OC(F)F)c(OC(C)C)c2)n1` [compound A, N-({2-[4-(difluoromethoxy)-3-(propan-2-yloxy)phenyl]-1,3-oxazol-4-yl}methyl)-2-ethoxybenzamide], for which, in assay [6], the “migration of the epidermic cells (wound confluence)” value is listed as “promoted migration of the epidermic cells via the skin fibroblasts”. The “migration of the corneal epithelial cells (wound confluence)” value in assay [7] is recorded as “promoted migration of the corneal epithelial cells via the keratocytes”. Also, in assay [1], the “wound area healing rate on Day 2” value is listed as 100%. Further, in assay [1] (setting [8]), the “healing of the corneal defect wound as compared with the vehicle administration group” value is reported as “a significant healing promoting action was confirmed”. In addition, the “time after preparation of the defect wound from which the defect portion area rapidly decreased” value in assay [1] (SD rat, 1% ointment four times a day, vehicle apparent healing started on Day 2) was 8 h. In assay [2], the “healing promoting action as compared with the vehicle administration group (area of defect portions)” value is listed as “a healing promoting action was confirmed” and the “course of the area of the defect portions (start of healing)” value is listed as “rapidly decreased from the second day”. Moreover, in assay [3], the “oral ulcer area on Day 8” value turned out to be 13.1±1.3 mm^2 and the “reduction in the oral ulcer area as compared with the vehicle administration group” value is recorded as “significant reduction in the oral ulcer area was observed”.
